In PubChem BioAssay AID1259407 (Chemical Carcinogenesis Research Information System (CCRIS), 2018):
The source made the active and inactive calls. How the calls were made is not given here.

Tested on: CCRIS mutagenicity, Ames/micronucleus/aberration tests
Assay: CCRIS mutagenicity studies
[1] = Test System: AMES SALMONELLA TYPHIMURIUM, Strain/Indicator: TA98, Metabolic Activation: NONE, Method: PREINCUBATION
[2] = Test System: AMES SALMONELLA TYPHIMURIUM, Strain/Indicator: TA100, Metabolic Activation: NONE, Method: PREINCUBATION
[3] = Test System: AMES SALMONELLA TYPHIMURIUM, Strain/Indicator: TA1535, Metabolic Activation: NONE, Method: PREINCUBATION
[4] = Test System: AMES SALMONELLA TYPHIMURIUM, Strain/Indicator: TA98, Metabolic Activation: NONE, Method: STANDARD PLATE
[5] = Test System: AMES SALMONELLA TYPHIMURIUM, Strain/Indicator: TA100, Metabolic Activation: NONE, Method: STANDARD PLATE
[6] = Test System: AMES SALMONELLA TYPHIMURIUM, Strain/Indicator: TA98, Metabolic Activation: RAT, LIVER, S-9, AROCLOR 1254, Method: STANDARD PLATE
[7] = Test System: AMES SALMONELLA TYPHIMURIUM, Strain/Indicator: TA100, Metabolic Activation: RAT, LIVER, S-9, AROCLOR 1254, Method: STANDARD PLATE
[8] = Test System: AMES SALMONELLA TYPHIMURIUM, Strain/Indicator: TA1537, Metabolic Activation: NONE, Method: STANDARD PLATE

For `CCC(C)C(C)CO` (stereo not given), the mutagenic call (Test System: AMES SALMONELLA TYPHIMURIUM, Strain/Indicator: TA97, Metabolic Activation: HAMSTER, LIVER, S-9, AROCLOR 1254 (10 OR 30%), Method: PREINCUBATION) was “inactive; negative”, the mutagenic call (Test System: AMES SALMONELLA TYPHIMURIUM, Strain/Indicator: TA97, Metabolic Activation: NONE, Method: PREINCUBATION) was “inactive; negative” and the mutagenic call (Test System: AMES SALMONELLA TYPHIMURIUM, Strain/Indicator: TA97, Metabolic Activation: RAT, LIVER, S-9, AROCLOR 1254 (10%), Method: PREINCUBATION) was “inactive; negative”. For the same molecule, the mutagenic call (Test System: AMES SALMONELLA TYPHIMURIUM, Strain/Indicator: TA97, Metabolic Activation: RAT, LIVER, S-9, AROCLOR 1254 (30%), Method: PREINCUBATION) was “inactive; negative”, the mutagenic call (Test System: AMES SALMONELLA TYPHIMURIUM, Strain/Indicator: TA98, Metabolic Activation: HAMSTER, LIVER, S-9, AROCLOR 1254 (10 OR 30%), Method: PREINCUBATION) was “inactive; negative” and the mutagenic call [1] was “inactive; negative”. For the same molecule, the mutagenic call (Test System: AMES SALMONELLA TYPHIMURIUM, Strain/Indicator: TA98, Metabolic Activation: RAT, LIVER, S-9, AROCLOR 1254 (10%), Method: PREINCUBATION) was “inactive; negative”, the mutagenic call (Test System: AMES SALMONELLA TYPHIMURIUM, Strain/Indicator: TA98, Metabolic Activation: RAT, LIVER, S-9, AROCLOR 1254 (30%), Method: PREINCUBATION) was “inactive; negative” and the mutagenic call (Test System: AMES SALMONELLA TYPHIMURIUM, Strain/Indicator: TA100, Metabolic Activation: HAMSTER, LIVER, S-9, AROCLOR 1254 (10 OR 30%), Method: PREINCUBATION) was “inactive; negative”. For the same molecule, the mutagenic call [2] was “inactive; negative”, the mutagenic call (Test System: AMES SALMONELLA TYPHIMURIUM, Strain/Indicator: TA100, Metabolic Activation: RAT, LIVER, S-9, AROCLOR 1254 (10%), Method: PREINCUBATION) was “inactive; negative” and the mutagenic call (Test System: AMES SALMONELLA TYPHIMURIUM, Strain/Indicator: TA100, Metabolic Activation: RAT, LIVER, S-9, AROCLOR 1254 (30%), Method: PREINCUBATION) was “inactive; negative”. The mutagenic call (Test System: AMES SALMONELLA TYPHIMURIUM, Strain/Indicator: TA1535, Metabolic Activation: HAMSTER, LIVER, S-9, AROCLOR 1254 (10 OR 30%), Method: PREINCUBATION) was “inactive; negative”, the mutagenic call [3] was “inactive; negative” and the mutagenic call (Test System: AMES SALMONELLA TYPHIMURIUM, Strain/Indicator: TA1535, Metabolic Activation: RAT, LIVER, S-9, AROCLOR 1254 (10%), Method: PREINCUBATION) was “inactive; negative”. For the same molecule, the mutagenic call (Test System: AMES SALMONELLA TYPHIMURIUM, Strain/Indicator: TA1535, Metabolic Activation: RAT, LIVER, S-9, AROCLOR 1254 (30%), Method: PREINCUBATION) was “inactive; negative”.
`Fc1cc2cccnc2c2ncccc12` was tested, and the mutagenic call (Test System: AMES SALMONELLA TYPHIMURIUM, Strain/Indicator: TA100, Metabolic Activation: RAT, LIVER, S-9, PHENOBARBITAL AND 5,6-BENZOFLAVONE, Method: PREINCUBATION) was “active; positive”.
`CS(=O)CCCC/C(=N\OS(=O)(=O)O)S[C@@H]1O[C@H](CO)[C@@H](O)[C@H](O)[C@H]1O` (stereo not given in full) was tested, and the mutagenic call (End Point: IN VITRO MICRONUCLEUS, Test System: HUMAN T-LYMPHOCYTES, Metabolic Activation: NONE) was “inactive; negative”.
`CN(c1nccc(=O)[nH]1)C1CCN(c2nc3ccccc3n2Cc2ccc(F)cc2)CC1` was tested, and the mutagenic call [1] was “inactive; negative”, the mutagenic call (Test System: AMES SALMONELLA TYPHIMURIUM, Strain/Indicator: TA98, Metabolic Activation: RAT LIVER S-9, PHENOBARBITAL AND 5,6-BENZOFLAVONE, Method: PREINCUBATION) was “inactive; negative” and the mutagenic call [2] was “inactive; negative”. For the same molecule, the mutagenic call (Test System: AMES SALMONELLA TYPHIMURIUM, Strain/Indicator: TA100, Metabolic Activation: RAT LIVER S-9, PHENOBARBITAL AND 5,6-BENZOFLAVONE, Method: PREINCUBATION) was “inactive; negative”, the mutagenic call [3] was “inactive; negative” and the mutagenic call (Test System: AMES SALMONELLA TYPHIMURIUM, Strain/Indicator: TA1535, Metabolic Activation: RAT LIVER S-9, PHENOBARBITAL AND 5,6-BENZOFLAVONE, Method: PREINCUBATION) was “inactive; negative”. The mutagenic call (Test System: AMES SALMONELLA TYPHIMURIUM, Strain/Indicator: TA1537, Metabolic Activation: NONE, Method: PREINCUBATION) was “inactive; negative”, the mutagenic call (Test System: AMES SALMONELLA TYPHIMURIUM, Strain/Indicator: TA1537, Metabolic Activation: RAT LIVER S-9, PHENOBARBITAL AND 5,6-BENZOFLAVONE, Method: PREINCUBATION) was “inactive; negative” and the mutagenic call (Test System: E.COLI, Strain/Indicator: WP2 UVRA, Metabolic Activation: NONE, Method: PREINCUBATION) was “inactive; negative”. The mutagenic call (Test System: E.COLI, Strain/Indicator: WP2 UVRA, Metabolic Activation: RAT LIVER S-9, PHENOBARBITAL AND 5,6-BENZOFLAVONE, Method: PREINCUBATION) was “inactive; negative”.
In the case of `Nc1ccc(-c2ccc(N)c(F)c2)cc1F`, the mutagenic call (Test System: AMES SALMONELLA TYPHIMURIUM, Strain/Indicator: TA98(1,8-DNP6), Metabolic Activation: HAMSTER, LIVER, S-9, Method: PREINCUBATION) is reported as “active; positive”, the mutagenic call (Test System: AMES SALMONELLA TYPHIMURIUM, Strain/Indicator: TA98(1,8-DNP6), Metabolic Activation: NONE, Method: PREINCUBATION) is reported as “active; positive” and the mutagenic call (Test System: AMES SALMONELLA TYPHIMURIUM, Strain/Indicator: TA98(1,8-DNP6), Metabolic Activation: NONE, Method: STANDARD PLATE) is reported as “active; positive”. For the same molecule, the mutagenic call (Test System: AMES SALMONELLA TYPHIMURIUM, Strain/Indicator: TA98(1,8-DNP6), Metabolic Activation: S-9, Method: STANDARD PLATE) was “active; positive”, the mutagenic call (Test System: AMES SALMONELLA TYPHIMURIUM, Strain/Indicator: TA98, Metabolic Activation: HAMSTER, LIVER, S-9, Method: PREINCUBATION) was “active; positive” and the mutagenic call [1] was “active; positive”. The mutagenic call [4] was “active; positive”, the mutagenic call (Test System: AMES SALMONELLA TYPHIMURIUM, Strain/Indicator: TA98, Metabolic Activation: S-9, Method: STANDARD PLATE) was “active; positive” and the mutagenic call [5] was “inactive; negative”. The mutagenic call (Test System: AMES SALMONELLA TYPHIMURIUM, Strain/Indicator: TA100, Metabolic Activation: S-9, Method: STANDARD PLATE) was “active; positive”.
`O[C@@H]1c2ccccc2-c2ccc3ccccc3c2[C@H]1O` was tested, and the mutagenic call [4] was “inactive; negative”, the mutagenic call [6] was “inactive; negative” and the mutagenic call [5] was “inactive; negative”. The mutagenic call [7] was “inactive; negative”.
For `CN(C)CCNC(=O)c1cccc2c(=O)c3ccccc3oc12`, the mutagenic call [8] was “active; positive”.
With `O=P([O-])([O-])OC(CCO)CCO.O=P([O-])([O-])OCC(O)CO.[Mn+2].[Mn+2]` the mutagenic call [4] was “inactive; negative”, the mutagenic call [6] was “inactive; negative” and the mutagenic call [5] was “inactive; negative”. For the same molecule, the mutagenic call [7] was “inactive; negative”, the mutagenic call (Test System: AMES SALMONELLA TYPHIMURIUM, Strain/Indicator: TA1535, Metabolic Activation: NONE, Method: STANDARD PLATE) was “inactive; negative” and the mutagenic call (Test System: AMES SALMONELLA TYPHIMURIUM, Strain/Indicator: TA1535, Metabolic Activation: RAT, LIVER, S-9, AROCLOR 1254, Method: STANDARD PLATE) was “inactive; negative”. For the same molecule, the mutagenic call [8] was “inactive; negative”, the mutagenic call (Test System: AMES SALMONELLA TYPHIMURIUM, Strain/Indicator: TA1537, Metabolic Activation: RAT, LIVER, S-9, AROCLOR 1254, Method: STANDARD PLATE) was “inactive; negative” and the mutagenic call (Test System: AMES SALMONELLA TYPHIMURIUM, Strain/Indicator: TA1538, Metabolic Activation: NONE, Method: STANDARD PLATE) was “inactive; negative”. For the same molecule, the mutagenic call (Test System: AMES SALMONELLA TYPHIMURIUM, Strain/Indicator: TA1538, Metabolic Activation: RAT, LIVER, S-9, AROCLOR 1254, Method: STANDARD PLATE) was “inactive; negative”, the mutagenic call (Test System: E. COLI, Strain/Indicator: WP2, Metabolic Activation: NONE, Method: STANDARD PLATE) was “inactive; negative” and the mutagenic call (Test System: E. COLI, Strain/Indicator: WP2, Metabolic Activation: RAT, LIVER, S-9, AROCLOR 1254, Method: STANDARD PLATE) was “inactive; negative”.
